In assay [1] the target is T1, human COX-1 (Ovis aries, UniProt P05979).
T1 sequence (P05979 25-600): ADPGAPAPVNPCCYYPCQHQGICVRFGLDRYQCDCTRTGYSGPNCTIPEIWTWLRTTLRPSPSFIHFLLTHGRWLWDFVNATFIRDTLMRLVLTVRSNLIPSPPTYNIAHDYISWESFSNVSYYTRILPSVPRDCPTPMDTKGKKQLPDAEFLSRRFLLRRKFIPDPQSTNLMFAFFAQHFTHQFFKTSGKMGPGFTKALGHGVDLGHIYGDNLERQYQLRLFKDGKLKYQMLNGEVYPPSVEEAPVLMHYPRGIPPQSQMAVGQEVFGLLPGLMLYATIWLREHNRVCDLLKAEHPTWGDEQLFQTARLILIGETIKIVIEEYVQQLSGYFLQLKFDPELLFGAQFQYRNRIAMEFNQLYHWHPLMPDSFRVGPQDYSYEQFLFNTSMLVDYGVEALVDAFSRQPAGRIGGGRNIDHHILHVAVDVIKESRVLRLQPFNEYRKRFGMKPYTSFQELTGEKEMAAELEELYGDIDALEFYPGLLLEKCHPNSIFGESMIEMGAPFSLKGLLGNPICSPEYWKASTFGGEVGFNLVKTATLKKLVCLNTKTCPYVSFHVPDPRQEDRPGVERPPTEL
The assay is described as follows: In vitro COX-1 inhibition assay.

Assay [2] concerns the target T2, human COX-2 (Homo sapiens, UniProt P35354).
T2 sequence (P35354 18-604): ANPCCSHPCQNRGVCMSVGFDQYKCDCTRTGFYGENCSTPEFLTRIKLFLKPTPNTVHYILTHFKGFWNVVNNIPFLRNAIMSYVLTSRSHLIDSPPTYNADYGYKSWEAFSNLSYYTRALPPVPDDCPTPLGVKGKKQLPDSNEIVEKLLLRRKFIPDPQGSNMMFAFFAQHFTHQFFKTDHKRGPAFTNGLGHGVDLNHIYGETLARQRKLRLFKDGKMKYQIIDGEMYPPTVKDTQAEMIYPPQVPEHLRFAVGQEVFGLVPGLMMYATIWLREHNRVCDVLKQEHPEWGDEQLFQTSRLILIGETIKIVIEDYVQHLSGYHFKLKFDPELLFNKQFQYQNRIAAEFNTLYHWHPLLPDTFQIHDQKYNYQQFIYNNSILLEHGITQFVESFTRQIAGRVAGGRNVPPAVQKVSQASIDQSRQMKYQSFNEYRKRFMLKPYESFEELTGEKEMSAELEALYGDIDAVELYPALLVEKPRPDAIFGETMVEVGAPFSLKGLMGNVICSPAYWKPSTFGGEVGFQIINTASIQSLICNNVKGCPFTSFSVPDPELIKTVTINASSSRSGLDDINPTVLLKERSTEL
The assay is described as follows: In vitro COX-2 inhibition assay. Particulars: for COX-2 SI: Selectivity index = COX-1 IC50/COX-2 IC50.

Assay [3] relates to LPS-induced NO production in RAW 264.7 cells. The assay is described as follows: NO production in LPS-activated RAW 264.7 macrophages. In kind it is cell-based, murine. Particulars: vs reference celecoxib.
Assay [4] has as its system LPS-induced ROS production in RAW 264.7 cells. The assay is described as follows: ROS production in LPS-activated RAW 264.7 macrophages. In kind it is cell-based, murine. Particulars: vs reference celecoxib.

Structures are written as SMILES.

The IC50 is the midpoint of a concentration-inhibition curve. Low values mean inhibition by little substance, high ones a need for much substance.

`O=C(CSc1nnc(-c2ccc(NC(=O)c3cccnc3)cc2)o1)Nc1cccc(Br)c1` [Compound 8f, N-(4-(5-((2-((3-Bromophenyl)amino)-2-oxoethyl)thio)-1,3,4-oxadiazol-2-yl)phenyl)nicotinamide]: the IC50 amounted to 10 ± 3.17 µM in assay [1] and 0.08 ± 0.01 µM in assay [2]. Besides, the “COX-2 SI” value in assay [2] came to 125.

`Nn1c(SCC(=O)Nc2cccc(Br)c2)nnc1-c1ccc(NC(=O)c2cccnc2)cc1` [Compound 11f, N-(4-(4-Amino-5-((2-((3-bromophenyl)amino)-2-oxoethyl)thio)-4H-1,2,4-triazol-3-yl)phenyl) nicotinamide] returned an IC50 in assay [1] of 9.5 ± 0.99 µM. In assay [2], inhibition was half-maximal at 0.09 ± 0.01 µM (IC50) and the “COX-2 SI” value stood at 105.56.

On to `Cc1ccc(NC(=O)CSc2nnc(-c3ccc(NC(=O)c4cccnc4)cc3)n2N)cc1` [Compound 11c, N-(4-(4-Amino-5-((2-((4-methylphenyl)amino)-2-oxoethyl)thio)-4H-1,2,4-triazol-3-yl)phenyl) nicotinamide], for which the IC50 in assay [1] was 13.5 ± 1.63 µM; in assay [2] it was 0.04 ± 0.01 µM. Besides, in assay [2], the “COX-2 SI” value was 337.5.

On to `O=C(CSc1nnc(-c2ccc(NC(=O)c3cccnc3)cc2)o1)Nc1ccc([N+](=O)[O-])cc1` [Compound 8b, N-(4-(5-((2-((4-Nitrophenyl)amino)-2-oxoethyl)thio)-1,3,4-oxadiazol-2-yl)phenyl)nicotinamide], for which, in assay [3], the “fold better NO IC50 than celecoxib” value is recorded as “more than 41 fold”. Further, in assay [4], the “fold lower ROS IC50 than celecoxib” value was “about 476 fold”. Besides, the figures for the IC50 in assay [1] and in assay [2] were 8.5 ± 0.6 µM and 0.14 ± 0.01 µM, respectively. In addition, in assay [2], the “COX-2 SI” value was determined as 60.71.

Compound `Nn1c(SCC(=O)Nc2ccccc2Cl)nnc1-c1ccc(NC(=O)c2cccnc2)cc1` [Compound 11g, N-(4-(4-Amino-5-((2-((2-chlorophenyl)amino)-2-oxoethyl)thio)-4H-1,2,4-triazol-3-yl)phenyl) nicotinamide] had an IC50 in assay [1] of 10.5 ± 2.25 µM. In assay [2], 0.08 ± 0.01 µM corresponded to half-maximal inhibition (IC50) and the “COX-2 SI” value amounted to 131.25.

`O=C(CSc1nnc(-c2ccc(NC(=O)c3cccnc3)cc2)o1)Nc1ccc(F)cc1` [Compound 8e, N-(4-(5-((2-((4-Fluorophenyl)amino)-2-oxoethyl)thio)-1,3,4-oxadiazol-2-yl)phenyl)nicotinamide] gave an IC50 in assay [1] of 7.5 ± 0.75 µM. Moreover, in assay [2], the IC50 worked out at 0.11 ± 0.01 µM and the “COX-2 SI” value was 68.18.

On to `Nn1c(SCC(=O)Nc2ccc([N+](=O)[O-])cc2)nnc1-c1ccc(NC(=O)c2cccnc2)cc1` [Compound 11b, N-(4-(4-Amino-5-((2-((4-nitrophenyl)amino)-2-oxoethyl)thio)-4H-1,2,4-triazol-3-yl)phenyl) nicotinamide], for which the IC50 was found to be 11.5 ± 1.41 µM in assay [1] and 0.08 ± 0.01 µM in assay [2]. In addition, the “COX-2 SI” value in assay [2] was 143.75.

For the compound `Nn1c(SCC(=O)Nc2ccc(F)cc2)nnc1-c1ccc(NC(=O)c2cccnc2)cc1` [Compound 11e, N-(4-(4-Amino-5-((2-((4-fluorophenyl)amino)-2-oxoethyl)thio)-4H-1,2,4-triazol-3-yl)phenyl) nicotinamide], the IC50 in assay [1] worked out at 10 ± 2.34 µM; in assay [2] it was 0.06 ± 0.01 µM. Moreover, the “COX-2 SI” value in assay [2] is listed as 166.67.

For the compound `Cc1ccc(C=Nn2c(-c3ccc(NC(=O)c4cccnc4)cc3)n[nH]c2=S)cc1` [Compound 10a, N-(4-(4-((4-Methylbenzylidene)amino)-5-thioxo-4,5-dihydro-1H-1,2,4-triazol-3-yl)phenyl) nicotinamide], the IC50 in assay [1] is 11.5 ± 0.98 µM; in assay [2], 0.11 ± 0.02 µM. Moreover, the “COX-2 SI” value in assay [2] is given as 104.55.

As to `CC(=O)c1ccc(NC(=O)CSc2nnc(-c3ccc(NC(=O)c4cccnc4)cc3)n2N)cc1` [Compound 11a, N-(4-(5-((2-((4-Acetylphenyl)amino)-2-oxoethyl)thio)-4-amino-4H-1,2,4-triazol-3-yl)phenyl) nicotinamide], the IC50 in assay [1] is 8.5 ± 0.62 µM; in assay [2] it was 0.11 ± 0.01 µM. Moreover, in assay [2], the “COX-2 SI” value worked out at 77.27.

With `Cc1ccc(C)c(NC(=O)CSc2nnc(-c3ccc(NC(=O)c4cccnc4)cc3)n2N)c1` [Compound 11d, N-(4-(4-Amino-5-((2-((2,5-dimethylphenyl)amino)-2-oxoethyl)thio)-4H-1,2,4-triazol-3-yl)phenyl) nicotinamide], the IC50 is 10.5 ± 3.03 µM in assay [1] and 0.08 ± 0.01 µM in assay [2]. For the same compound, the “COX-2 SI” value in assay [2] came to 131.25.

As for `Cc1ccc(NC(=O)CSc2nnc(-c3ccc(NC(=O)c4cccnc4)cc3)o2)cc1` [Compound 8c, N-(4-(5-((2-((4-Methylphenyl)amino)-2-oxoethyl)thio)-1,3,4-oxadiazol-2-yl)phenyl)nicotinamide], it took 11.5 ± 0.85 µM to reach half-maximal inhibition in assay [1] (IC50). Besides, in assay [2], the IC50 is 0.05 ± 0.01 µM and the “COX-2 SI” value was 230.

As for `Cc1ccc(C)c(NC(=O)CSc2nnc(-c3ccc(NC(=O)c4cccnc4)cc3)o2)c1` [Compound 8d, N-(4-(5-((2-((2,5-Dimethylphenyl)amino)-2-oxoethyl)thio)-1,3,4-oxadiazol-2-yl)phenyl) nicotinamide], the IC50 in assay [1] was 10.5 ± 2.98 µM. In assay [2], the midpoint of inhibition, the IC50, lay at 0.16 ± 0.04 µM and the “COX-2 SI” value is 65.63.

For `CC(=O)c1ccc(NC(=O)CSc2nnc(-c3ccc(NC(=O)c4cccnc4)cc3)o2)cc1` [Compound 8a, N-(4-(5-((2-((4-Acetylphenyl)amino)-2-oxoethyl)thio)-1,3,4-oxadiazol-2-yl)phenyl)nicotinamide], the IC50 in assay [1] was 11.5 ± 1.01 µM; in assay [2], 0.05 ± 0.01 µM. In addition, the “COX-2 SI” value in assay [2] is listed as 230.

Compound `O=C(CSc1nnc(-c2ccc(NC(=O)c3cccnc3)cc2)o1)Nc1ccccc1Cl` [Compound 8g, N-(4-(5-((2-((2-Chlorophenyl)amino)-2-oxoethyl)thio)-1,3,4-oxadiazol-2-yl)phenyl)nicotinamide] had an IC50 in assay [1] of 8.5 ± 0.71 µM. Also, in assay [2], the IC50 was 0.05 ± 0.01 µM and the “COX-2 SI” value is on record as 170.

In turn, `O=C(Nc1ccc(-c2n[nH]c(=S)n2N=Cc2c[nH]c3ccccc23)cc1)c1cccnc1` [Compound 10b, N-(4-(4-(((1H-Indol-3-yl)methylene)amino)-5-thioxo-4,5-dihydro-1H-1,2,4-triazol-3-yl)phenyl) nicotinamide] gave an IC50 in assay [1] of 8 ± 0.14 µM. Moreover, in assay [2], half-maximal inhibition (IC50) required 0.11 ± 0.01 µM and the “COX-2 SI” value came to 72.73.

These data come from article PMC10965220 (Bioorganic chemistry, 2022).
